Results as given in paper PMC12466090 (Photochemistry and Photobiology, 2025).

Tests used:
[1] = in water; standard of the relative method; no reference given; cited from earlier work
[2] = UV-VIS absorption / fluorescence spectroscopy; assay type: physicochemical; conditions: fluorescence spectrum in washed cells, excitation at 600 nm (Figure S3)

Row | Molecule | singlet oxygen quantum yield (ΦΔ) of the reference standard [1] | form bound to cells (fluorescence spectrum after uptake) [2]
1 | CN(C)c1ccc2nc3ccc(=[N+](C)C)cc-3sc2c1 [methylene blue] | 0.52 | –
2 | cRGDfK (Arg–Gly–Asp–D–Phe–Lys) (head to tail) [SiPc‐2c(RGDfK)] | – | monomeric form is bound to cells
